From ChEMBL document CHEMBL2417483, “Synthesis of thiosemicarbazones derived from N-(4-hippuric acid)thiosemicarbazide and different carbonyl compounds as antimicrobial agents” (2013)
≈ marks a conversion by molar mass, not a printed value.

Legend:
[1] = test system: Priestia megaterium; test: Antibacterial activity against Bacillus megaterium ATCC 9885 assessed as growth inhibition at 1 mg/mL after 24 hrs by agar well diffusion assay; assay type: functional; details: ATCC 9885, 24 h, read-out: DIZ
[2] = test system: Proteus vulgaris; test: Antibacterial activity against Proteus vulgaris assessed as growth inhibition at 1 mg/mL after 24 hrs by agar well diffusion assay; assay type: functional; details: read-out: DIZ
[3] = test system: Micrococcus luteus; test: Antibacterial activity against Sarcina luteus assessed as growth inhibition at 1 mg/mL after 24 hrs by agar well diffusion assay; assay type: functional; details: read-out: DIZ
[4] = test system: Escherichia coli; test: Antibacterial activity against Escherichia coli ATCC 25922 assessed as growth inhibition at 1 mg/mL after 24 hrs by agar well diffusion assay; assay type: functional; details: ATCC 25922, 24 h, read-out: DIZ
[5] = test system: Saccharomyces cerevisiae; test: Antifungal activity against Saccharomyces cerevisiae assessed as growth inhibition at 1 mg/mL after 24 hrs by agar well diffusion assay; assay type: functional; details: read-out: DIZ
[6] = test system: Bacillus spizizenii; test: Antibacterial activity against Bacillus subtilis ATCC 6633 assessed as growth inhibition at 1 mg/mL after 24 hrs by agar well diffusion assay; assay type: functional; details: ATCC 6633, 24 h, read-out: DIZ
[7] = test system: Staphylococcus aureus; test: Antibacterial activity against Staphylococcus aureus ATCC 29213 assessed as growth inhibition at 1 mg/mL after 24 hrs by agar well diffusion assay; assay type: functional; details: ATCC 29213, 24 h, read-out: DIZ
[8] = test system: Klebsiella pneumoniae; test: Antibacterial activity against Klebsiella pneumoniae ATCC 13883 assessed as growth inhibition at 1 mg/mL after 24 hrs by agar well diffusion assay; assay type: functional; details: ATCC 13883, 24 h, read-out: DIZ
[9] = test system: Candida albicans; test: Antifungal activity against Candida albicans NRRLY 477 assessed as growth inhibition at 1 mg/mL after 24 hrs by agar well diffusion assay; assay type: functional; details: NRRLY 477, 24 h, read-out: DIZ
[10] = test system: Pseudomonas aeruginosa; test: Antibacterial activity against Pseudomonas aeruginosa ATCC 27953 assessed as growth inhibition at 1 mg/mL after 24 hrs by agar well diffusion assay; assay type: functional; details: ATCC 27953, 24 h, read-out: DIZ
[11] = test system: Micrococcus luteus; test: Bacteriostatic activity against Sarcina luteus after 24 hrs by two-fold serial dilution assay; assay type: functional
[12] = test system: Candida albicans; test: Fungistatic activity against Candida albicans NRRLY 477 after 24 hrs by two-fold serial dilution assay; assay type: functional; details: NRRLY 477, 24 h
[13] = test system: Escherichia coli; test: Potency index, ratio of ciprofloxacin MIC to compound MIC for Escherichia coli ATCC 25922; assay type: functional
[14] = test system: Bacillus spizizenii; test: Bacteriostatic activity against Bacillus subtilis ATCC 6633 after 24 hrs by two-fold serial dilution assay; assay type: functional; details: ATCC 6633, 24 h
[15] = test system: Klebsiella pneumoniae; test: Bacteriostatic activity against Klebsiella pneumoniae ATCC 13883 after 24 hrs by two-fold serial dilution assay; assay type: functional; details: ATCC 13883, 24 h
[16] = test system: Proteus vulgaris; test: Bacteriostatic activity against Proteus vulgaris after 24 hrs by two-fold serial dilution assay; assay type: functional
[17] = test system: Saccharomyces cerevisiae; test: Fungistatic activity against Saccharomyces cerevisiae after 24 hrs by two-fold serial dilution assay; assay type: functional
[18] = test system: Priestia megaterium; test: Bacteriostatic activity against Bacillus megaterium ATCC 9885 after 24 hrs by two-fold serial dilution assay; assay type: functional; details: ATCC 9885, 24 h
[19] = test system: Escherichia coli; test: Bacteriostatic activity against Escherichia coli ATCC 25922 after 24 hrs by two-fold serial dilution assay; assay type: functional; details: ATCC 25922, 24 h
[20] = test system: Pseudomonas aeruginosa; test: Bacteriostatic activity against Pseudomonas aeruginosa ATCC 27953 after 24 hrs by two-fold serial dilution assay; assay type: functional; details: ATCC 27953, 24 h
[21] = test system: Staphylococcus aureus; test: Bacteriostatic activity against Staphylococcus aureus ATCC 29213 after 24 hrs by two-fold serial dilution assay; assay type: functional; details: ATCC 29213, 24 h
[22] = test system: Pseudomonas aeruginosa; test: Potency index, ratio of ciprofloxacin MIC to compound MIC for Pseudomonas aeruginosa ATCC 27953; assay type: functional
[23] = test system: Micrococcus luteus; test: Potency index, ratio of ciprofloxacin MIC to compound MIC for Sarcina luteus; assay type: functional
[24] = test system: Proteus vulgaris; test: Potency index, ratio of ciprofloxacin MIC to compound MIC for Proteus vulgaris; assay type: functional
[25] = test system: Klebsiella pneumoniae; test: Potency index, ratio of ciprofloxacin MIC to compound MIC for Klebsiella pneumoniae ATCC 13883; assay type: functional
[26] = test system: Pseudomonas aeruginosa; test: microbe, parasite or virus in culture; details: ATCC 27953, 24 h, read-out: DIZ
Description: Antibacterial activity against Pseudomonas aeruginosa ATCC 27953 assessed as growth inhibition at 0.5 mg/mL after 24 hrs by agar well diffusion assay

[27] = test system: Proteus vulgaris; test: Antibacterial activity against Proteus vulgaris assessed as growth inhibition at 0.5 mg/mL after 24 hrs by agar well diffusion assay; assay type: functional; details: read-out: DIZ
[28] = test system: Bacillus spizizenii; test: Antibacterial activity against Bacillus subtilis ATCC 6633 assessed as growth inhibition at 0.5 mg/mL after 24 hrs by agar well diffusion assay; assay type: functional; details: ATCC 6633, 24 h, read-out: DIZ
[29] = test system: Micrococcus luteus; test: Antibacterial activity against Sarcina luteus assessed as growth inhibition at 0.5 mg/mL after 24 hrs by agar well diffusion assay; assay type: functional; details: read-out: DIZ
[30] = test system: Priestia megaterium; test: Antibacterial activity against Bacillus megaterium ATCC 9885 assessed as growth inhibition at 0.5 mg/mL after 24 hrs by agar well diffusion assay; assay type: functional; details: ATCC 9885, 24 h, read-out: DIZ
[31] = test system: Staphylococcus aureus; test: microbe, parasite or virus in culture; details: ATCC 29213, 24 h, read-out: DIZ
Description: Antibacterial activity against Staphylococcus aureus ATCC 29213 assessed as growth inhibition at 0.5 mg/mL after 24 hrs by agar well diffusion assay

[32] = test system: Klebsiella pneumoniae; test: microbe, parasite or virus in culture; details: ATCC 13883, 24 h, read-out: DIZ
Description: Antibacterial activity against Klebsiella pneumoniae ATCC 13883 assessed as growth inhibition at 0.5 mg/mL after 24 hrs by agar well diffusion assay

[33] = test system: Saccharomyces cerevisiae; test: Antifungal activity against Saccharomyces cerevisiae assessed as growth inhibition at 0.5 mg/mL after 24 hrs by agar well diffusion assay; assay type: functional; details: read-out: DIZ
[34] = test system: Candida albicans; test: Antifungal activity against Candida albicans NRRLY 477 assessed as growth inhibition at 0.5 mg/mL after 24 hrs by agar well diffusion assay; assay type: functional; details: NRRLY 477, 24 h, read-out: DIZ

| SMILES | zone of inhibition at 1000 µg/mL [1] | zone of inhibition at 1000 µg/mL [2] | zone of inhibition at 1000 µg/mL [3] | zone of inhibition at 1000 µg/mL [4] | zone of inhibition at 1000 µg/mL [5] | zone of inhibition at 1000 µg/mL [6] | zone of inhibition at 1000 µg/mL [7] | zone of inhibition at 1000 µg/mL [8] | zone of inhibition at 1000 µg/mL [9] | zone of inhibition at 1000 µg/mL [10] | further results |
| --- | --- | --- | --- | --- | --- | --- | --- | --- | --- | --- | --- |
| O=C(O)CNC(=O)c1ccc(NC(=S)N/N=C/c2cccc(Br)c2)cc1 | 18 mm | 0 mm | 18 mm | 20 mm | 11 mm | 13 mm | 18 mm | 9 mm | 0 mm | 11 mm |  |
| Cc1ccc(/C=N/NC(=S)Nc2ccc(C(=O)NCC(=O)O)cc2)cc1 | 9 mm | 20 mm | 24 mm | 0 mm | 0 mm | 0 mm | 10 mm | 0 mm | 0 mm | 0 mm |  |
| O=C(O)CNC(=O)c1ccc(NC(=S)N/N=C/c2ccc(F)cc2)cc1 | 19 mm | 26 mm | 28 mm | 31 mm | 20 mm | 20 mm | 28 mm | 30 mm | 20 mm | 30 mm | MIC [11]: 25 µg/mL (≈ 66.8 µM); MIC [12]: 50 µg/mL (≈ 134 µM); PI [13]: 2; MIC [14]: 12.5 µg/mL (≈ 33.4 µM); MIC [15]: 12.5 µg/mL (≈ 33.4 µM); MIC [16]: 12.5 µg/mL (≈ 33.4 µM); MIC [17]: 12.5 µg/mL (≈ 33.4 µM); MIC [18]: 12.5 µg/mL (≈ 33.4 µM); MIC [19]: 6.25 µg/mL (≈ 16.7 µM); MIC [20]: 25 µg/mL (≈ 66.8 µM); MIC [21]: 6.25 µg/mL (≈ 16.7 µM) |
| O=C(O)CNC(=O)c1ccc(NC(=S)N/N=C/c2ccc([N+](=O)[O-])cc2)cc1 | 14 mm | 0 mm | 0 mm | 0 mm | 0 mm | 15 mm | 11 mm | 0 mm | 0 mm | 0 mm |  |
| C/C(=N\NC(=S)Nc1ccc(C(=O)NCC(=O)O)cc1)c1ccccc1 | 18 mm | 19 mm | 25 mm | 19 mm | 17 mm | 14 mm | 20 mm | 18 mm | 0 mm | 19 mm |  |
| C/C(=N\NC(=S)Nc1ccc(C(=O)NCC(=O)O)cc1)c1ccc(Br)cc1 | 17 mm | 20 mm | 25 mm | 23 mm | 18 mm | 15 mm | 20 mm | 19 mm | 0 mm | 19 mm |  |
| C/C(=N\NC(=S)Nc1ccc(C(=O)NCC(=O)O)cc1)c1ccc(C)cc1 | 25 mm | 21 mm | 25 mm | 27 mm | 26 mm | 19 mm | 29 mm | 22 mm | 25 mm | 32 mm | MIC [11]: 12.5 µg/mL (≈ 32.5 µM); MIC [12]: 25 µg/mL (≈ 65 µM); PI [13]: 2; MIC [14]: 12.5 µg/mL (≈ 32.5 µM); PI [22]: 4; MIC [15]: 25 µg/mL (≈ 65 µM); MIC [16]: 12.5 µg/mL (≈ 32.5 µM); MIC [17]: 6.25 µg/mL (≈ 16.3 µM); MIC [18]: 12.5 µg/mL (≈ 32.5 µM); MIC [19]: 6.25 µg/mL (≈ 16.3 µM); MIC [20]: 3.12 µg/mL (≈ 8.12 µM); MIC [21]: 6.25 µg/mL (≈ 16.3 µM) |
| C/C(=N\NC(=S)Nc1ccc(C(=O)NCC(=O)O)cc1)c1ccc(Cl)cc1 | 14 mm | 0 mm | 0 mm | 0 mm | 0 mm | 15 mm | 9 mm | 0 mm | 0 mm | 0 mm |  |
| O=C(O)CNC(=O)c1ccc(NC(=S)NN=C(c2ccccc2)c2ccccc2)cc1 | 15 mm | 0 mm | 0 mm | 17 mm | 0 mm | 20 mm | 0 mm | 0 mm | 0 mm | 12 mm |  |
| O=C(O)CNC(=O)c1ccc(NC(=S)NN=C2CCCCC2)cc1 | 9 mm | 20 mm | 24 mm | 0 mm | 0 mm | 0 mm | 11 mm | 0 mm | 0 mm | 12 mm |  |
| O=C(O)CNC(=O)c1ccc(NC(=S)N/N=C2/CCc3ccccc32)cc1 | 18 mm | 20 mm | 25 mm | 25 mm | 20 mm | 18 mm | 28 mm | 28 mm | 20 mm | 28 mm | MIC [11]: 12.5 µg/mL (≈ 32.7 µM); PI [23]: 2; MIC [12]: 12.5 µg/mL (≈ 32.7 µM); PI [13]: 2; MIC [14]: 25 µg/mL (≈ 65.4 µM); PI [22]: 2; MIC [15]: 12.5 µg/mL (≈ 32.7 µM); MIC [16]: 12.5 µg/mL (≈ 32.7 µM); MIC [17]: 50 µg/mL (≈ 131 µM); MIC [18]: 50 µg/mL (≈ 131 µM); MIC [19]: 12.5 µg/mL (≈ 32.7 µM); PI [24]: 2; MIC [20]: 6.25 µg/mL (≈ 16.3 µM); PI [25]: 2; MIC [21]: 6.25 µg/mL (≈ 16.3 µM) |
| O=C(O)CNC(=O)c1ccc(NC(=S)N/N=C2/CC(=O)c3ccccc32)cc1 | 0 mm | 20 mm | 24 mm | 18 mm | 12 mm | 9 mm | 28 mm | 0 mm | 0 mm | 11 mm |  |
| O=C(O)c1cn(C2CC2)c2cc(N3CCNCC3)c(F)cc2c1=O [CIPROFLOXACIN] |  |  |  |  |  |  |  |  |  |  | MIC [11]: 12.5 µg/mL (≈ 37.7 µM); zone of inhibition at 500 µg/mL [26]: 24 mm; MIC [14]: 6.25 µg/mL (≈ 18.9 µM); zone of inhibition at 500 µg/mL [27]: 23 mm; zone of inhibition at 500 µg/mL [28]: 22 mm; zone of inhibition at 500 µg/mL [29]: 20 mm; MIC [15]: 12.5 µg/mL (≈ 37.7 µM); MIC [16]: 12.5 µg/mL (≈ 37.7 µM); zone of inhibition at 500 µg/mL [30]: 24 mm; MIC [18]: 6.25 µg/mL (≈ 18.9 µM); MIC [19]: 12.5 µg/mL (≈ 37.7 µM); zone of inhibition at 500 µg/mL [31]: 20 mm; zone of inhibition at 500 µg/mL [32]: 25 mm |
| CC(=O)N1CCN(c2ccc(OCC3COC(Cn4ccnc4)(c4ccc(Cl)cc4Cl)O3)cc2)CC1 (stereo not given) [KETOCONAZOLE] |  |  |  |  |  |  |  |  |  |  | MIC [12]: 6.25 µg/mL (≈ 11.8 µM); zone of inhibition at 500 µg/mL [33]: 23 mm; MIC [17]: 3.12 µg/mL (≈ 5.87 µM); zone of inhibition at 500 µg/mL [34]: 22 mm |
